This is an account of results in the NIST ThermoML archive (doi:10.1016/j.tca.2014.05.028).

Series [1] can be described thus: Molar enthalpy of transition or fusion. The note with it: DSC.
The conditions of series [2]: for mass density: 101 kPa, Liquid, Vibrating tube method; for Triple point temperature: DTA.

± gives the expanded uncertainty stated by the source.

As a reminder, the mass density is mass per unit of volume. On to `CCC[N+]1(C)CCCC1.[Br-]` [1-methyl-1-propylpyrrolidinium bromide], for which the “Molar enthalpy of transition or fusion” value in series [1] (Crystal 1) came out at 10.8 ± 0.38 kJ/mol; in series [1] (Crystal 2), 2.92 ± 0.2 kJ/mol. In addition, the mass density in series [2] (298.15 K) was determined as 1259.96 ± 1.4 kg/m3; in series [2] (303.15 K), 1255.92 ± 1.4 kg/m3; in series [2] (308.15 K) it was 1251.9 ± 1.4 kg/m3; in series [2] (313.15 K), 1247.91 ± 1.4 kg/m3; in series [2] (318.15 K) it was 1243.94 ± 1.4 kg/m3; in series [2] (323.15 K) it was 1240 ± 1.4 kg/m3. Moreover, the mass density amounted to 1236.08 ± 1.4 kg/m3 in series [2] (328.15 K), 1232.19 ± 1.4 kg/m3 in series [2] (333.15 K), 1228.32 ± 1.3 kg/m3 in series [2] (338.15 K) and 1224.48 ± 1.3 kg/m3 in series [2] (343.15 K). The figures for the Triple point temperature in series [2] (Crystal 1) and in series [2] (Crystal 2) were 476.68 ± 0.41 K and 465.12 ± 0.41 K, respectively.
As for `CCCCC[N+]1(C)CCCC1.[Br-]` [1-methyl-1-pentylpyrrolidinium bromide], the “Molar enthalpy of transition or fusion” value was found to be 8.97 ± 0.33 kJ/mol in series [1] (Crystal 1) and 1.95 ± 0.16 kJ/mol in series [1] (Crystal 2). The mass density in series [2] (298.15 K) amounted to 1188.96 ± 0.4 kg/m3; in series [2] (303.15 K) it was 1185.14 ± 0.4 kg/m3; in series [2] (308.15 K) it was 1181.35 ± 0.4 kg/m3; in series [2] (313.15 K), 1177.58 ± 0.4 kg/m3; in series [2] (318.15 K), 1173.84 ± 0.39 kg/m3; in series [2] (323.15 K) it was 1170.12 ± 0.39 kg/m3. For the same molecule, the mass density in series [2] (328.15 K) is reported as 1166.42 ± 0.39 kg/m3; in series [2] (333.15 K), 1162.75 ± 0.39 kg/m3; in series [2] (338.15 K), 1159.1 ± 0.38 kg/m3; in series [2] (343.15 K), 1155.48 ± 0.38 kg/m3. Also, the Triple point temperature in series [2] (Crystal 1) was determined as 431.55 ± 0.41 K; in series [2] (Crystal 2) it was 326.85 ± 0.41 K.
As to `CCCC[N+]1(C)CCCC1.[Br-]` [1-butyl-1-methylpyrrolidinium bromide], the “Molar enthalpy of transition or fusion” value in series [1] (Crystal) was 13.1 ± 0.45 kJ/mol. Further, the mass density was determined as 1221.19 ± 2.9 kg/m3 in series [2] (298.15 K); 1217.27 ± 2.9 kg/m3 in series [2] (303.15 K); 1213.38 ± 2.8 kg/m3 in series [2] (308.15 K); 1209.51 ± 2.8 kg/m3 in series [2] (313.15 K); 1205.66 ± 2.8 kg/m3 in series [2] (318.15 K); 1201.84 ± 2.8 kg/m3 in series [2] (323.15 K). Moreover, the mass density is given as 1198.05 ± 2.8 kg/m3 in series [2] (328.15 K), 1194.28 ± 2.8 kg/m3 in series [2] (333.15 K), 1190.53 ± 2.7 kg/m3 in series [2] (338.15 K) and 1186.8 ± 2.7 kg/m3 in series [2] (343.15 K). Also, the Triple point temperature in series [2] (Crystal) stood at 487.67 ± 0.41 K.
